Experimental data as given in publication PMC4512978, “Synthesis and evaluation in rats of homologous series of [^18F]-labeled dopamine D2/3 receptor agonists based on the 2-aminomethylchroman scaffold as potential PET tracers” (EJNMMI Research, 2015).

Assays:
[1] = Ex vivo tissue uptake after the PET scan (gamma-counter); type: in vivo, Sprague-Dawley rats
Procedure: After the end of the PET scans (i.e., 98 ± 8 min after tracer injection), anesthetized animals were sacrificed by heart extirpation and dissected. Samples of brain and peripheral tissues were taken. All samples were weighed, and their radioactivity was measured in a gamma-counter.

D2/3R = tested on: D2/3R; parameters: method as in PMID 24325578; conditions: [^18F]FBu-AMC13 0.2 nM, [^18F]FEt-AMC15 5.8 ± 1.6 nM, cited from earlier work
[2] = raclopride 1 mg/kg, after PET scan

SMILES: Oc1ccc2c(c1)O[C@@H](CNCCN1CCN(c3ccc(OCC[18F])cc3)CC1)CC2 [[^18F]FEt-AMC15, (R) 1-(4-(2-[^18F]fluoroethoxy)phenyl)-4-(4-(7-hydroxychroman-2-yl)-3-azabutyl)-piperazine]
- Ex vivo uptake, Adipose tissue ([1]; RAC): 0.10±0.05 SUV
- Ex vivo uptake, Adrenal glands ([1]; RAC): 1.73±1.07 SUV
- Ex vivo uptake, Bladder ([1]; RAC): 0.69±0.30 SUV
- Ex vivo uptake, Blood cells ([1]; RAC): 0.05±0.04 SUV
- Ex vivo uptake, Bone ([1]; RAC): 0.12±0.08 SUV
- Ex vivo uptake, Bone marrow ([1]; RAC): 0.91±0.53 SUV
- Ex vivo uptake, Caecum ([1]; RAC): 0.91±1.10 SUV
- Ex vivo uptake, Duodenum ([1]; RAC): 22.8±36.6 SUV
- Ex vivo uptake, Heart ([1]; RAC): 0.15±0.10 SUV
- Ex vivo uptake, Kidney ([1]; RAC): 0.61±0.51 SUV
- Ex vivo uptake, Large intestine ([1]; RAC): 1.20±1.48 SUV
- Ex vivo uptake, Large intestine content ([1]; RAC): 0.06±0.04 SUV
- Ex vivo uptake, Liver ([1]; RAC): 1.47±1.56 SUV
- Ex vivo uptake, Lung ([1]; RAC): 1.19±0.40 SUV
- Ex vivo uptake, Muscle ([1]; RAC): 0.15±0.11 SUV
- Ex vivo uptake, Pancreas ([1]; RAC): 0.92±0.77 SUV
- Ex vivo uptake, Plasma ([1]; RAC): 0.07±0.02 SUV
- Ex vivo uptake, Prostate ([1]; RAC): 0.42±0.10 SUV
- Ex vivo uptake, Small intestine ([1]; RAC): 11.1±18.4 SUV
- Ex vivo uptake, Small intestine content ([1]; RAC): 60.5±104 SUV
- Ex vivo uptake, Spleen ([1]; RAC): 1.62±1.15 SUV
- Ex vivo uptake, Stomach ([1]; RAC): 1.73±0.75 SUV
- Ex vivo uptake, Submandibular gland ([1]; RAC): 1.41±0.34 SUV
- Ex vivo uptake, Testes ([1]; RAC): 0.04±0.01 SUV
- Ex vivo uptake, Thymus ([1]; RAC): 0.43±0.15 SUV
- Ex vivo uptake, Urine ([1]; RAC): 2.32±3.35 SUV
- Ex vivo uptake, Whole blood ([1]; RAC): 0.12±0.08 SUV
- Ex vivo uptake, Adipose tissue ([1]; SAL): 0.18±0.09 SUV
- Ex vivo uptake, Adrenal glands ([1]; SAL): 1.53±0.58 SUV
- Ex vivo uptake, Bladder ([1]; SAL): 0.23±0.05 SUV
- Ex vivo uptake, Blood cells ([1]; SAL): 0.05±0.04 SUV
- Ex vivo uptake, Bone ([1]; SAL): 0.14±0.03 SUV
- Ex vivo uptake, Bone marrow ([1]; SAL): 0.98±0.36 SUV
- Ex vivo uptake, Caecum ([1]; SAL): 0.15±0.10 SUV
- Ex vivo uptake, Duodenum ([1]; SAL): 1.92±0.35 SUV
- Ex vivo uptake, Heart ([1]; SAL): 0.11±0.04 SUV
- Ex vivo uptake, Kidney ([1]; SAL): 0.40±0.10 SUV
- Ex vivo uptake, Large intestine ([1]; SAL): 0.15±0.07 SUV
- Ex vivo uptake, Large intestine content ([1]; SAL): 0.02±0.01 SUV
- Ex vivo uptake, Liver ([1]; SAL): 0.86±0.23 SUV
- Ex vivo uptake, Lung ([1]; SAL): 1.18±0.16 SUV
- Ex vivo uptake, Muscle ([1]; SAL): 0.07±0.04 SUV
- Ex vivo uptake, Pancreas ([1]; SAL): 0.75±0.27 SUV
- Ex vivo uptake, Plasma ([1]; SAL): 0.14±0.11 SUV
- Ex vivo uptake, Prostate ([1]; SAL): 0.38±0.15 SUV
- Ex vivo uptake, Small intestine ([1]; SAL): 0.18±0.07 SUV
- Ex vivo uptake, Small intestine content ([1]; SAL): 0.56±0.24 SUV
- Ex vivo uptake, Spleen ([1]; SAL): 1.52±0.68 SUV
- Ex vivo uptake, Stomach ([1]; SAL): 1.79±0.92 SUV
- Ex vivo uptake, Submandibular gland ([1]; SAL): 1.51±0.26 SUV
- Ex vivo uptake, Testes ([1]; SAL): 0.04±0.01 SUV
- Ex vivo uptake, Thymus ([1]; SAL): 0.49±0.09 SUV
- Ex vivo uptake, Urine ([1]; SAL): 0.69±0.33 SUV
- Ex vivo uptake, Whole blood ([1]; SAL): 0.06±0.03 SUV
- Ex vivo uptake, Brainstem [1, 2]: 0.03 ± 0.01 SUV
- Ex vivo uptake, Cerebellum [1, 2]: 0.03 ± 0.01 SUV
- Ex vivo uptake, Cortex [1, 2]: 0.03 ± 0.01 SUV
- Ex vivo uptake, Hippocampus [1, 2]: 0.03 ± 0.01 SUV
- Ex vivo uptake, Mean brain uptake [1, 2]: 0.03 ± 0.01 SUV
- Ex vivo uptake, Olfactory bulbs [1, 2]: 0.03 ± 0.02 SUV
- Ex vivo uptake, Parietal bone [1, 2]: 0.08 ± 0.03 SUV
- Ex vivo uptake, Pituitary [1, 2]: 1.08 ± 0.27 SUV
- Ex vivo uptake, Rest of brain [1, 2]: 0.03 ± 0.02 SUV
- Ex vivo uptake, Striatum [1, 2]: 0.03 ± 0.01 SUV
- Ex vivo uptake, Thalamus + hypothalamus [1, 2]: 0.03 ± 0.01 SUV
- Ex vivo uptake, Brainstem ([1]; saline, after PET scan): 0.03 ± 0.004 SUV
- Ex vivo uptake, Cerebellum ([1]; saline, after PET scan): 0.03 ± 0.01 SUV
- Ex vivo uptake, Cortex ([1]; saline, after PET scan): 0.03 ± 0.003 SUV
- Ex vivo uptake, Hippocampus ([1]; saline, after PET scan): 0.03 ± 0.02 SUV
- Ex vivo uptake, Mean brain uptake ([1]; saline, after PET scan): 0.03 ± 0.01 SUV
- Ex vivo uptake, Olfactory bulbs ([1]; saline, after PET scan): 0.03 ± 0.001 SUV
- Ex vivo uptake, Parietal bone ([1]; saline, after PET scan): 0.09 ± 0.03 SUV
- Ex vivo uptake, Pituitary ([1]; saline, after PET scan): 1.36 ± 0.30 SUV
- Ex vivo uptake, Rest of brain ([1]; saline, after PET scan): 0.02 ± 0.02 SUV
- Ex vivo uptake, Thalamus + hypothalamus ([1]; saline, after PET scan): 0.03 ± 0.01 SUV
- Ex vivo uptake, Striatum ([1]; saline, after PET scan (98 ± 8 min p.i.)): 0.02 ± 0.02 SUV
- Striatal SBR % change relative to control condition, Raclopride (D2/3R; 10 μM raclopride): −60%
- Striatal SBR, Raclopride (D2/3R; 10 μM raclopride): 0.65 ± 0.37
- Striatal SBR % change relative to control condition, GTP (D2/3R; 100 μM GTP): −59%
- Striatal SBR, GTP (D2/3R; 100 μM GTP): 0.67 ± 0.28
- Striatal SBR, Control (D2/3R; radioligand only): 1.64 ± 1.04
